Assay results reported in US11998600B2, “Enhancing the therapeutic activity of an immune checkpoint inhibitor” (MaineHealth, priority 2015, dated 2024).

Key:
YAP = experiment: Nuclear YAP in HUVECs attached to collagen peptides; type: cell-based, human
Description: Whole cell and CAM tissue lysates were collected in RIPA buffer supplemented with 1× protease inhibitor and 1× phosphatase inhibitor and were run on polyacrylamide gels using denaturing conditions. Prior to loading the gels, 6× sample buffer was added to each of the lysates (final concentration 1×) and boiled for five minutes. Twenty to 50 μg of total protein were loaded into each lane. […] Gels were run at 60 volts (v) until the dye front passed through the stacking gel, and then the voltage was increased to 100V for the remainder of the separation. Precision Plus protein standards (Bio-Rad) were used to visualize migration. Protein was transferred to nitrocellulose membranes using a wet tank system and blocked for 1 h using 10% non-fat dried milk in tris-buffered saline with 0.01% Tween-20 (TBS-T). […] Membranes were washed 3 times in TBS-T for five minutes. Blots were then incubated with HRP conjugated secondary antibodies (1:15000) in 1% non-fat milk in TBS-T for 1 h. Membranes were washed a second time as indicated above and exposed to chemiluminecent substrate for three minutes prior to exposure to autoradiography film in a dark room. Western blot bands were quantified using Image J software based on pixel intensity.

P38MAPK [1] = experiment: Phosphorylated P38MAPK in CAM tissue lysates, Western blot; type: in vivo, chick; settings: Image-J quantification, FIG. 6B
Description: The chick chorioallantoic membrane (CAM) assays were carried out with some modifications (19). For all experiments CAMs of 10-day-old chick embryos obtained from Charles River (North Franklin, CT) were separated from the shell membrane. Filter discs either non-treated (inflammation assays) pretreated (angiogenesis assays) with cortisone acetate (3.0 mg/ml) containing RPMI only or FGF-2 (40 ng). CAMs were either non-treated or treated topically with Mab XL313, XL166 or a non-specific control antibody (10 μg/embryo every 24 h for three consecutive treatments). […] At the end of the incubation period the embryos were sacrificed and the CAM tissues were analyzed. Angiogenesis was quantified by counting the number of angiogenic branching blood vessels within the area of the filter disc. The angiogenic index was determined by subtracting the mean number of blood vessel branch points from untreated CAMs from each experimental condition. Eight to twelve embryos were used per condition and experiments were repeated at least three times.
Whole cell and CAM tissue lysates were collected in RIPA buffer supplemented with 1× protease inhibitor and 1× phosphatase inhibitor and were run on polyacrylamide gels using denaturing conditions. […] Western blot bands were quantified using Image J software based on pixel intensity.

P38MAPK [2] = experiment: P38MAPK phosphorylation in HUVECs attached to collagen peptides, Western blot; type: cell-based, human; settings: cells attached to immobilized peptide; FIG. 6D
Description: Endothelial cells (HUVECs or HRMVECs) were incubated in serum free media with 1 mM MgCl2, 0.2 mM MnCl2 in the presence of a Src inhibitor, PP2, (10 μM) a P38MAPK inhibitor, SB202190 (10 μM) or vehicle only (DMSO) for 10 min at 37° C. Treated cells were then seeded on to immobilized P-1 and P-2 and lysates were collected at 15 min.
Whole cell and CAM tissue lysates were collected in RIPA buffer supplemented with 1× protease inhibitor and 1× phosphatase inhibitor and were run on polyacrylamide gels using denaturing conditions. Prior to loading the gels, 6× sample buffer was added to each of the lysates (final concentration 1×) and boiled for five minutes. Twenty to 50 μg of total protein were loaded into each lane. For detection of proteins larger than 50 kD, 10% gels were used; for proteins smaller than 50 kD 15% gels were used. Gels were run at 60 volts (v) until the dye front passed through the stacking gel, and then the voltage was increased to 100V for the remainder of the separation. Precision Plus protein standards (Bio-Rad) were used to visualize migration. Protein was transferred to nitrocellulose membranes using a wet tank system and blocked for 1 h using 10% non-fat dried milk in tris-buffered saline with 0.01% Tween-20 (TBS-T). […] Western blot bands were quantified using Image J software based on pixel intensity. […]

## QGPRGDKGE [Mab P-2]
YAP; 15 minutes after binding, no growth factor, FIG. 8A
  nuclear localized YAP (immunofluorescence), P-2 as compared to P-1: enhanced level of nuclear localized YAP
YAP; nuclear fractions of HUVEC lysates, FIG. 8B
  increase of nuclear YAP levels (Western blot), P-2 as compared to P-1: approximately 2 fold
P38MAPK [1]
  increase in phosphorylation of P38MAPK as compared to controls: 4 fold
P38MAPK [2]
  phosphorylation of P38MAPK in HUVECs, P-2 as compared to P-1: enhanced phosphorylation of P38MAPK
